AC50 data for 66 molecules are collected here from PubChem BioAssay AID449750 (Broad Institute, 2010).

Active and inactive are the calls of the source. How the calls were made is not given here. Where only a bound is given, the exact number is not on record here.

This assay can be described thus: non-covalent RecA intein splicing inhibitors, dose response, biochemical, cell-free, fluorescence, secondary screen (AID 449750).

In the case of `CCCCCc1cc(=O)oc2c(C(CCN3CCCC(C)C3)c3ccc(OC)cc3)c(OC)cc(OC)c12` (stereo unspecified), the AC50 was 10.1 µM. For `Nc1c(N2CCCC2)cc(Cl)c2nonc12`, the AC50 is 4.13 µM. Turning to `COC(=O)N/N=C\c1ccc(OC(=O)c2ccco2)cc1`, the AC50 was > 38 µM (inactive). Regarding `CCCc1[nH][nH]c(=O)c1C(c1cccc(Cl)c1)C(C#N)C#N` (stereo unspecified), the AC50 is 9.32 µM. As for `C/C(=N\NC(=O)c1ccncc1)c1cc2ccccc2oc1=O`, the AC50 was > 38 µM (inactive). As for `Fc1ccc(Nc2nc(NCc3ccco3)c3ccccc3n2)cc1`, the AC50 is 7.39 µM. As for `C=COC(=O)CSc1snc(SCC(=O)OC)c1C#N`, the AC50 was > 38 µM (inactive). Regarding `CC(=O)c1c(C)nc(-c2ccc(Cl)cc2)nc1N=CN(C)C`, the AC50 is > 38 µM (inactive). Take `COC(=O)Cc1[nH]nc2c1C(c1ccc(O)c(OC)c1)C(C#N)=C(N)O2` (stereo unspecified): the AC50 was 28.4 µM. In the case of `CCCCn1c(NC(=O)c2ccco2)c(S(=O)(=O)c2ccc(C)cc2)c2nc3ccccc3nc21` it was > 38 µM (inactive); in that of `CCOc1cc(C(c2c(C)[nH][nH]c2=O)c2c(C)[nH][nH]c2=O)cc(Br)c1OC`, 15.8 µM.

`CSCCC1C(C#N)=C(N)Oc2n[nH]c(-c3cccs3)c21` (stereo unspecified): the AC50 was 11.4 µM. On to `CCc1[nH]nc2c1C(c1ccc(C)o1)C(C#N)=C(N)O2` (stereo unspecified), for which the AC50 was > 38 µM (inactive). Consider `COc1cc(C(C(=O)NC2CCCCC2)N(CCN2CCOCC2)C(=O)C2COc3ccccc3O2)cc(OC)c1OC` (stereo unspecified), for which the AC50 was > 38 µM (inactive). Regarding `Cc1cccc(CS(=O)(=O)c2ncc(Cl)c(C(=O)NCc3ccc4c(c3)OCO4)n2)c1`, the AC50 was > 38 µM (inactive). `Cc1ccc2nc(N/N=C\c3ccc([N+](=O)[O-])o3)nc(-c3ccccc3)c2c1`: the AC50 was > 38 µM (inactive).

Regarding `CCc1[nH]nc2c1C(Cc1ccccc1)C(C#N)=C(N)O2` (stereo unspecified), the AC50 was > 38 µM (inactive). On to `CC1=NN(c2ccc(C)cc2C)C(=O)C1C(c1ccccc1)C1C(=O)N(c2ccc(C)cc2C)N=C1C` (stereo unspecified), for which the AC50 was 3.04 µM. Turning to `Cc1ccc(C)c(-c2ccc(=O)n(Cc3cccc(Br)c3)n2)c1`, the AC50 was 16.7 µM.

Take `NS(=O)(=O)c1ccc(N=Nc2ccc(=O)[nH]c2O)cc1`: the AC50 was 24.6 µM. For the molecule `Cc1cccc(CS(=O)(=O)c2ncc(Cl)c(C(=O)Nc3nnc(C(C)C)s3)n2)c1`, the AC50 was 2.13 µM.

In the case of `O=C(Oc1ccc(-c2nnco2)cc1)c1ccco1`, the AC50 was > 38 µM (inactive). For `Cc1[nH]n(-c2ccccc2)c(=O)c1C(c1ccc(O)c([N+](=O)[O-])c1)c1c(C)[nH]n(-c2ccccc2)c1=O`, the AC50 was 2.77 µM.

On to `CCOC(=O)c1cc2cc3ccccc3cc2[nH]1`, for which the AC50 is > 38 µM (inactive). For the molecule `Cc1ccc(Sc2ccc(NC(=O)CCl)cc2)cc1C`, the AC50 was 0.699 µM. `Cc1cccc(CSC(Nc2ccc(F)cc2)=C(C#N)C#N)c1`: the AC50 was > 38 µM (inactive). Consider `O=C1CC(c2ccccc2)=NN1c1ccc([N+](=O)[O-])cc1`, for which the AC50 is 7.43 µM.

On to `CCc1nnc(NC(=O)c2nc(S(=O)(=O)Cc3cccc(C)c3)ncc2Cl)s1`, for which the AC50 was > 38 µM (inactive).

Take `CCOc1ccc(C(c2c(C)[nH][nH]c2=O)c2c(C)[nH][nH]c2=O)cc1OC`: the AC50 was 6.7 µM.

Regarding `O=c1[nH]c(O)c(N=Nc2cc([N+](=O)[O-])ccc2O)c(=O)[nH]1`, the AC50 was 2.29 µM. In the case of `CC(/C=C1\SC(=S)N(NC(=O)c2cccc(O)c2)C1=O)=C\c1ccccc1` it was 20.9 µM; in that of `Cc1cc(=O)n(-c2ccc(C(=O)O)cc2)[nH]1`, 1.92 µM; in that of `COc1ccc(N(Cc2cc(=O)[nH]c3ccccc23)C(=O)CCl)cc1`, 8.33 µM. In the case of `C/C(CC(=O)Nc1ccccn1)=N\NC(=O)c1ccc(C)cc1`, the AC50 is > 38 µM (inactive).

Turning to `Cc1nc2c(=O)n(C)c(=O)nc-2n(C)n1`, the AC50 was 0.0855 µM. `Nc1ccccc1S(=O)(=O)NC1=NCCCCC1`: the AC50 is > 38 µM (inactive). As for `O=S(=O)(Cc1ccccc1)c1cnc2ccccc2n1`, the AC50 is > 38 µM (inactive).

Take `O=C(Nc1ccc(N2CCOCC2)cc1)Nc1ccc2nsnc2c1`: the AC50 was > 38 µM (inactive). For the molecule `CC(=O)NCCn1c(SCC(=O)NCc2ccco2)nc2ccccc2c1=O`, the AC50 is > 38 µM (inactive).

On to `Cc1ccc(-c2[nH]nc3c2C(c2ccc(OC(=O)N4CCOCC4)cc2)C(C#N)=C(N)O3)cc1` (stereo unspecified), for which the AC50 was 21.1 µM. In the case of `CCOC(=O)c1[nH]c(=O)c2ccccc2c1O` it was 2.65 µM; in that of `O=c1[nH]c(Nc2ccccc2)cc2cc(Br)ccc12`, 7 µM. `Cc1ccccc1CS(=O)(=O)c1nnc([C@H](Cc2ccccc2)NC(=O)OC(C)(C)C)o1`: the AC50 is > 38 µM (inactive). With `CCOC(=O)c1oc2nc(CC(C)C)c3c(c2c1N)CCC3`, the AC50 is > 38 µM (inactive).

Regarding `COC(=O)c1ccccc1NC(=S)NC(=O)c1ccc(C)cc1`, the AC50 is > 38 µM (inactive).

As to `N#CC1=C(N)Oc2n[nH]c(-c3cccs3)c2C1c1ccsc1` (stereo unspecified), the AC50 is 3.98 µM. With `COc1cc(C(c2c(C)[nH][nH]c2=O)c2c(C)[nH][nH]c2=O)ccc1OS(=O)(=O)c1ccccc1`, the AC50 is 9.54 µM.

Consider `COc1ccc(-n2c3nc4ccccc4nc3c3c(=N)oc(C)nc32)cc1`, for which the AC50 was > 12 µM (inactive). In the case of `O=C(NCCc1ccccc1)C(c1cccs1)N(C(=O)CCl)c1ccc(Cl)cc1` (stereo unspecified), the AC50 is 1.03 µM. In the case of `CC(C)OC(=O)CN1C(=O)C(=O)c2ccccc21`, the AC50 is 37.2 µM. Turning to `COC(=O)c1ccccc1S(=O)(=O)N1CCC(NC(=O)c2ccccc2)CC1`, the AC50 is > 38 µM (inactive). In the case of `CCS(=O)(=O)c1ncc(Cl)c(C(=O)Nc2ccc(S(=O)(=O)N(C)c3ccccc3)cc2)n1` it was 1.66 µM; in that of `c1coc(-c2nnc(-c3ccco3)nn2)c1`, 12.8 µM. In the case of `Cc1[nH]n(-c2ccccc2)c(=O)c1C(C[N+](=O)[O-])c1ccc(Cl)cc1` (stereo unspecified), the AC50 is 8.62 µM.

In the case of `CC1=C(CC(=O)c2ccccc2)C(=O)c2ccccc2C1=O`, the AC50 was 16.6 µM. On to `O=C1C2=C(c3ccccc31)[N+](=O)C1CCCCC1N2[O-]` (stereo unspecified), for which the AC50 was 18.3 µM. In the case of `COc1ccc(OC)c(C2C(C#N)=C(N)Oc3c2c(C)nn3-c2cccc(Cl)c2)c1` (stereo unspecified) it was 30 µM; in that of `Cc1cc(C)n(-c2ccc([N+](=O)[O-])cc2)n1`, > 38 µM (inactive). Consider `Cc1cccc(CS(=O)(=O)c2ncc(Cl)c(C(=O)Nc3c(C)cccc3C)n2)c1`, for which the AC50 was > 38 µM (inactive). On to `COc1ccccc1/C=C/C1(C(=O)NC2CCCC2)CC(=O)N1c1ccc(C)cc1` (stereo unspecified), for which the AC50 is 13.3 µM.

For `Cc1ccc(Sc2ncnc3onc(C)c23)cc1`, the AC50 is > 38 µM (inactive). For `COc1ccc(Nc2ccc3c(c2)=NC2(CCCCC2)[N+]=3[O-])cc1`, the AC50 is 15 µM.

Take `COc1cc(C2NC(=O)C(C#N)=C(Nc3cccc(C)c3)S2)ccc1O` (stereo unspecified): the AC50 was 3.17 µM.

Turning to `Cn1cnc([N+](=O)[O-])c1S(=O)(=O)c1cccc(Cl)c1`, the AC50 was 30 µM.

In the case of `O=C1C(Nc2ccccc2)=C(N2CCCCC2)C(=O)c2ccccc21`, the AC50 was 12.6 µM. For `Cc1cccc(CS(=O)(=O)c2nnc([C@H](Cc3ccccc3)NC(=O)OC(C)(C)C)o2)c1`, the AC50 was > 38 µM (inactive).
